The results in this text go back to ChEMBL document CHEMBL2321830 (J Med Chem, 2013).

Numbering of substitutions follows the chain as printed.

One assay deals with T1, Aldo-keto reductase family 1 member C4 (Homo sapiens, UniProt P17516).
T1 sequence (P17516 whole entry): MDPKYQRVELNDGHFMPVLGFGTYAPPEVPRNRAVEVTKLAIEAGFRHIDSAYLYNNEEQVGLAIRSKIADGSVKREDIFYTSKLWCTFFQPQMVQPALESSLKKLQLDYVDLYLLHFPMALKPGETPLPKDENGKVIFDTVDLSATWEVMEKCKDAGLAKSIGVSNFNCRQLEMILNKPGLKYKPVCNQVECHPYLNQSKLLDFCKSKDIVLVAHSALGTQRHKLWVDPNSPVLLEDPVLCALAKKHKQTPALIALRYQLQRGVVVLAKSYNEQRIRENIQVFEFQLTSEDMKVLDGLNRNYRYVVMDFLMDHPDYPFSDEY
Kind of assay: Inhibition of human recombinant AKR1C4-mediated NADP+-dependent oxidation of S-(+)-1,2,3,4-tetrahydro-1-naphthol.
For orientation: IC50 means the concentration at which inhibition is half-maximal. As for `COc1ccc2c(c1)c(CCC(=O)O)c(C)n2C(=O)c1ccc(Cl)cc1`, the 50% inhibitory concentration (IC50) is greater than 100 µM.
For `COc1ccc2c(c1)c(CC(=O)O)c(C)n2C(=O)c1ccc(C)cc1`, the IC50 was greater than 100 µM.
Turning to `COc1ccc2c(c1)c(CC(=O)O)c(C)n2C(=O)c1ccc(C(F)(F)F)cc1`, the IC50 is greater than 100 µM.
With `COc1ccc2c(c1)c(CC(=O)NS(=O)(=O)C(F)(F)F)c(C)n2C(=O)c1ccc(Cl)cc1`, the IC50 is greater than 100 µM.
Still for that read-out and setting: to `COc1ccc2c(c1)c(CC(=O)NS(=O)(=O)C(F)(F)F)cn2C(=O)c1ccc(Cl)cc1` belongs greater than 100 µM.

The target in the next assay is T2, Aldo-keto reductase family 1 member C1 (Homo sapiens, UniProt Q04828).
T2 sequence (Q04828 whole entry): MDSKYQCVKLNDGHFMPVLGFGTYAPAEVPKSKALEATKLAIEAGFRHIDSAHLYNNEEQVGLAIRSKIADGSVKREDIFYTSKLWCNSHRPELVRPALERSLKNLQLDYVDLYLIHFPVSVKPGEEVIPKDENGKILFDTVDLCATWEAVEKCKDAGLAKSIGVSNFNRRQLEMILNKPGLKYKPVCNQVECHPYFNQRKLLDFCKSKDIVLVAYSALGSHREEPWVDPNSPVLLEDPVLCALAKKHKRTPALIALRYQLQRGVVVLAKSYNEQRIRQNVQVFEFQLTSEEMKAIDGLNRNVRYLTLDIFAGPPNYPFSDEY
Kind of assay: Inhibition of human recombinant AKR1C1-mediated NADP+-dependent oxidation of S-(+)-1,2,3,4-tetrahydro-1-naphthol.
`COc1ccc2c(c1)c(CC(=O)O)c(C)n2C(=O)c1ccc(C)cc1`: the 50% inhibitory concentration (IC50) was greater than 100 µM.
On to `COc1ccc2c(c1)c(CC(=O)O)c(C)n2C(=O)c1ccc(C(F)(F)F)cc1`, for which the IC50 is greater than 100 µM.
For the compound `COc1ccc2c(c1)c(CC(=O)NS(=O)(=O)C(F)(F)F)c(C)n2C(=O)c1ccc(Cl)cc1`, the IC50 is greater than 100 µM.
Regarding `COc1ccc2c(c1)c(CC(=O)NS(=O)(=O)C(F)(F)F)cn2C(=O)c1ccc(Cl)cc1`, the IC50 was greater than 100 µM.
On the same count and under the same terms, to `COc1ccc2c(c1)c(CC(=O)O)cn2C(=O)c1ccc(Cl)cc1` belongs greater than 100 µM.

The next assay has as its target T3, Aldo-keto reductase family 1 member C3 (Homo sapiens, UniProt P42330).
T3 sequence (P42330 whole entry): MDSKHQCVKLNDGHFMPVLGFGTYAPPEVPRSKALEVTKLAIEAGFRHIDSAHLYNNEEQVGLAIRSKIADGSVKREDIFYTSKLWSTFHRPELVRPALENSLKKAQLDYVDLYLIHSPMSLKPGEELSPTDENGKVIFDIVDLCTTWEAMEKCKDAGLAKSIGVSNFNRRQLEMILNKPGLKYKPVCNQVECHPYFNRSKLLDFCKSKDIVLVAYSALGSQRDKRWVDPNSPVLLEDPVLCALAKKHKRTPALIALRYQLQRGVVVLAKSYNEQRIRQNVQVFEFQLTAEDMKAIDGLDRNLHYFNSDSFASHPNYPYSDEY
The assay can be described thus: Inhibition of human recombinant AKR1C3-mediated NADP+-dependent oxidation of S-(+)-1,2,3,4-tetrahydro-1-naphthol.
Consider `Cc1c(CC(=O)O)c2cc(F)ccc2n1C(=O)c1ccc(Cl)cc1`, for which the half-maximal inhibitory concentration (IC50) was 0.25 µM.
The same measure, in the same setting: with `COc1ccc2[nH]c(C)c(CC(=O)O)c2c1` [DESCHLOROBENZOYL INDOMETHACIN] the figure was greater than 100 µM.

The next assay has as its target T4, Aldo-keto reductase family 1 member C2 (Homo sapiens, UniProt P52895).
T4 sequence (P52895 whole entry): T2 sequence (Q04828 whole entry) with T38V, R47H, L54V, C87S, V151M, R170H, Q172L
The assay can be described thus: Inhibition of human recombinant AKR1C2-mediated NADP+-dependent oxidation of S-(+)-1,2,3,4-tetrahydro-1-naphthol.
Consider `Cc1c(CC(=O)O)c2cc(F)ccc2n1C(=O)c1ccc(Cl)cc1`, for which the concentration for half-maximal inhibition (IC50) came to 6.19 µM.
Regarding `COc1ccc2[nH]c(C)c(CC(=O)O)c2c1` [DESCHLOROBENZOYL INDOMETHACIN], the IC50 is 100 µM.

For the next assay, the target named is T5, Prostaglandin G/H synthase 2 (Mus musculus, UniProt Q05769).
T5 sequence (Q05769 whole entry): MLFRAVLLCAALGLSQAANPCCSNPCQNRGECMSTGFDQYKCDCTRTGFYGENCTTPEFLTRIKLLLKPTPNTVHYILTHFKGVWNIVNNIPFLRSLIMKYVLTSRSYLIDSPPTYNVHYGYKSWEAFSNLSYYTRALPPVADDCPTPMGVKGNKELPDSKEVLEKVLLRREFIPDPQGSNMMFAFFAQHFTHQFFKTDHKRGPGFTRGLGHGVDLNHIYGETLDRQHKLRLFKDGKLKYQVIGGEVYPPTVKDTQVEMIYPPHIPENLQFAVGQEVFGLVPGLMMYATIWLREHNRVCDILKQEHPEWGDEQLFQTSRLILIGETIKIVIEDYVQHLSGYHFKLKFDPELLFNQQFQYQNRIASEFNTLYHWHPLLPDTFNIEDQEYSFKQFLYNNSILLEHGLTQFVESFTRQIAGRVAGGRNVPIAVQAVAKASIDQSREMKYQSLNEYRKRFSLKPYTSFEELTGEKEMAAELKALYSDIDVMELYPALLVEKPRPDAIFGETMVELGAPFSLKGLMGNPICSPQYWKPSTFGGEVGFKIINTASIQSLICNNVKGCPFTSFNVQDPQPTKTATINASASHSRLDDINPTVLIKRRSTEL
Description: Inhibition of wild type mouse COX2 by discontinuous radioactive TLC assay
With `Cc1c(CC(=O)O)c2cc(F)ccc2n1C(=O)c1ccc(Cl)cc1`, the IC50 amounted to 0.09 µM.
Regarding `CCc1c(CCC(=O)O)n(C(=O)c2ccc(Cl)cc2)c2ccc(OC)cc12`, the IC50 turned out to be 7 µM.
On the same count and under the same terms, with `COc1ccc2c(c1)c(CC(=O)O)cn2C(=O)c1ccc(Cl)cc1` the figure was 3.27 µM.

For another assay, the target named is T6, Prostaglandin G/H synthase 1 (Ovis aries, UniProt P05979).
T6 sequence (P05979 whole entry): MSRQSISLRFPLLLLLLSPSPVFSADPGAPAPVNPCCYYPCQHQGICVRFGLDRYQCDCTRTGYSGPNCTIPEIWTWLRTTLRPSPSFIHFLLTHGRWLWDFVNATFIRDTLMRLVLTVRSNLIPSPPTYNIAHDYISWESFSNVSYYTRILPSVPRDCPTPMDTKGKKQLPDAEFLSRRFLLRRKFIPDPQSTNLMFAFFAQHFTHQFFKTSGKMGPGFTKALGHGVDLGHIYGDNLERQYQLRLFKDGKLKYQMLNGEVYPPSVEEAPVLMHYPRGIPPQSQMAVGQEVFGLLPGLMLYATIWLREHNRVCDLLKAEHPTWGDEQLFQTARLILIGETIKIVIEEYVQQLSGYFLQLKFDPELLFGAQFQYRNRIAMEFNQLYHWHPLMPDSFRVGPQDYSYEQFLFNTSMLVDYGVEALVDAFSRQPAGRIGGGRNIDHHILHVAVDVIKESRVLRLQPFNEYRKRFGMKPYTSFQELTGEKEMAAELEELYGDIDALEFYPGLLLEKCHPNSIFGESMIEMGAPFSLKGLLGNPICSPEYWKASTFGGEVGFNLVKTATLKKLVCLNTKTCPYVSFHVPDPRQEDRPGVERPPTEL
Description: Inhibition of ovine COX1 by discontinuous radioactive TLC assay
As to `Cc1c(CC(=O)O)c2cc(F)ccc2n1C(=O)c1ccc(Cl)cc1`, the IC50 amounted to 0.49 µM.
On to `COc1ccc2c(c1)c(CC(=O)O)cn2C(=O)c1ccc(Cl)cc1`, for which 15.3 µM corresponded to half-maximal inhibition (IC50).
